Results reported in ChEMBL document CHEMBL4118195, “Synthesis and profiling of benzylmorpholine 1,2,4,5-tetraoxane analogue N205: Towards tetraoxane scaffolds with potential for single dose cure of malaria” (Bioorg Med Chem, 2018).

What was measured:
[1] = Drug metabolism in mouse liver microsomes assessed as metabolite M+32 (III) formation at 5 uM after 60 mins by UPLC-MS analysis; format: ADME, microsome; settings: 1 h
[2] = Cmax in humanized NOD.Cg-Prkdcscid Il2rgtm1Wjl/SzJ mouse infected with Plasmodium falciparum Pf3D70087/N9 at 30 mg/kg, po administered as single dose after 0.25 to 23 hrs by LC-MS/MS analysis; format: ADME, organism-based; design: dose 30 mg/kg, route oral; settings: in vivo
[3] = Drug metabolism in mouse liver microsomes assessed as mono-oxygenation and dehydrogenation metabolite formation at 5 uM after 60 mins by UPLC-MS analysis; format: ADME, microsome; settings: 1 h
[4] = Drug metabolism in human liver microsomes assessed as metabolite M+32 (III) formation at 5 uM after 60 mins by UPLC-MS analysis; format: ADME, microsome; settings: 1 h
Plasmodium falciparum = experiment: Antimalarial activity against Plasmodium falciparum Pf3D70087/N9 infected in po dosed humanized NOD.Cg-Prkdcscid Il2rgtm1Wjl/SzJ mouse assessed as reduction in parasitemia administered as single dose measured on day 7 post infection by SYTO-16 dye-based flow cytometric analysis; format: functional; settings: 168 h
[5] = Drug metabolism in mouse liver microsomes assessed as metabolite M-10(II) formation at 5 uM after 60 mins by UPLC-MS analysis; format: ADME, microsome; settings: 1 h
[6] = Drug metabolism in mouse liver microsomes assessed as bis-oxygenation and dehydrogenation metabolite formation at 5 uM after 60 mins by UPLC-MS analysis; format: ADME, microsome; settings: 1 h
Mus musculus [7] = experiment: Dose normalized Cmax in humanized NOD.Cg-Prkdcscid Il2rgtm1Wjl/SzJ mouse infected with Plasmodium falciparum Pf3D70087/N9 at 15 mg/kg, po administered as single dose after 0.25 to 23 hrs by LC-MS/MS analysis; format: ADME, organism-based; settings: in vivo
[8] = Drug metabolism in human liver microsomes assessed as open morpholine ring metabolite formation at 5 uM after 60 mins by UPLC-MS analysis; format: ADME, microsome; settings: 1 h
[9] = Drug metabolism in human liver microsomes assessed as mono-oxygenation and dehydrogenation metabolite formation at 5 uM after 60 mins by UPLC-MS analysis; format: ADME, microsome; settings: 1 h
Mus musculus [10] = experiment: Dose normalized Cmax in humanized NOD.Cg-Prkdcscid Il2rgtm1Wjl/SzJ mouse infected with Plasmodium falciparum Pf3D70087/N9 at 50 mg/kg, po administered as single dose after 0.25 to 23 hrs by LC-MS/MS analysis; format: ADME, organism-based; settings: in vivo
[11] = Drug metabolism in human liver microsomes assessed as bis-oxygenation and dehydrogenation metabolite formation at 5 uM after 60 mins by UPLC-MS analysis; format: ADME, microsome; settings: 1 h
Cytochrome P450 2C19 = Cytochrome P450 2C19 (Homo sapiens, UniProt P33261); experiment: Inhibition of CYP2C19 in human liver microsomes assessed as (S)-mephenytoin 4'-hydroxylation after 4 to 40 mins in presence of NADPH by LCMS analysis; format: ADME
[12] = Drug degradation in human liver microsomes assessed as compound half life at 5 uM by UPLC-MS method; format: ADME, microsome
[13] = Tmax in humanized NOD.Cg-Prkdcscid Il2rgtm1Wjl/SzJ mouse infected with Plasmodium falciparum Pf3D70087/N9 at 100 mg/kg, po administered as single dose by LC-MS/MS analysis; format: ADME, organism-based; settings: in vivo
Cytochrome P450 2C9 = Cytochrome P450 2C9 (Homo sapiens, UniProt P11712); experiment: Inhibition of CYP2C9 in human liver microsomes assessed as tolbutamide methylhydroxylation after 4 to 40 mins in presence of NADPH by LCMS analysis; format: ADME
[14] = Drug metabolism in human liver microsomes assessed as morpholine ring opened metabolite formation at 5 uM after 60 mins by UPLC-MS analysis; format: ADME, microsome; settings: 1 h
[15] = Drug metabolism in mouse liver microsomes assessed as morpholine dealkylated metabolite formation at 5 uM after 60 mins by UPLC-MS analysis; format: ADME, microsome; settings: 1 h
[16] = Drug metabolism in rat liver microsomes assessed as metabolite M+16 (III) formation at 5 uM after 60 mins by UPLC-MS analysis; format: ADME, microsome; settings: 1 h
Cytochrome P450 3A4 [17] = target: T1, Cytochrome P450 3A4 (Homo sapiens, UniProt P08684); experiment: Inhibition of CYP3A4 in human liver microsomes assessed as midazolam 1'-hydroxylation after 4 to 40 mins in presence of NADPH by LCMS analysis; format: ADME
[18] = Drug metabolism in human liver microsomes assessed as metabolite M+16 (IV) formation at 5 uM after 60 mins by UPLC-MS analysis; format: ADME, microsome; settings: 1 h
[19] = Tmax in humanized NOD.Cg-Prkdcscid Il2rgtm1Wjl/SzJ mouse infected with Plasmodium falciparum Pf3D70087/N9 at 50 mg/kg, po administered as single dose by LC-MS/MS analysis; format: ADME, organism-based; settings: in vivo
Mus musculus [20] = experiment: Dose normalized Cmax in humanized NOD.Cg-Prkdcscid Il2rgtm1Wjl/SzJ mouse infected with Plasmodium falciparum Pf3D70087/N9 at 5 mg/kg, po administered as single dose after 0.25 to 23 hrs by LC-MS/MS analysis; format: ADME, organism-based; settings: in vivo
[21] = AUC (0 to t) in humanized NOD.Cg-Prkdcscid Il2rgtm1Wjl/SzJ mouse infected with Plasmodium falciparum Pf3D70087/N9 at 30 mg/kg, po administered as single dose by LC-MS/MS analysis; format: ADME, organism-based; settings: in vivo
[22] = Cmax in humanized NOD.Cg-Prkdcscid Il2rgtm1Wjl/SzJ mouse infected with Plasmodium falciparum Pf3D70087/N9 at 5 mg/kg, po administered as single dose after 0.25 to 23 hrs by LC-MS/MS analysis; format: ADME, organism-based; design: dose 5 mg/kg, route oral; settings: in vivo
[23] = Drug metabolism in rat liver microsomes assessed as open morpholine ring metabolite formation at 5 uM after 60 mins by UPLC-MS analysis; format: ADME, microsome; settings: 1 h
[24] = Drug metabolism in human liver microsomes assessed as metabolite M+16 (III) formation at 5 uM after 60 mins by UPLC-MS analysis; format: ADME, microsome; settings: 1 h
Mus musculus [25] = experiment: Dose normalized AUC (0 to t) in humanized NOD.Cg-Prkdcscid Il2rgtm1Wjl/SzJ mouse infected with Plasmodium falciparum Pf3D70087/N9 at 100 mg/kg, po administered as single dose by LC-MS/MS analysis; format: ADME, organism-based; settings: in vivo
[26] = Metabolic stability in human blood after 2 to 4 hrs by LC-MS method; format: ADME, tissue-based
[27] = Oral bioavailability in Sprague-Dawley rat at 100 mg/kg administered via gavage by LC/MS analysis; format: ADME, organism-based; settings: in vivo
[28] = Tmax in humanized NOD.Cg-Prkdcscid Il2rgtm1Wjl/SzJ mouse infected with Plasmodium falciparum Pf3D70087/N9 at 30 mg/kg, po administered as single dose by LC-MS/MS analysis; format: ADME, organism-based; settings: in vivo
[29] = Intrinsic clearance in mouse liver microsomes assessed per mg protein at 1 uM by UPLC-MS analysis; format: ADME, microsome; settings: read-out: CLH
[30] = Tmax in humanized NOD.Cg-Prkdcscid Il2rgtm1Wjl/SzJ mouse infected with Plasmodium falciparum Pf3D70087/N9 at 15 mg/kg, po administered as single dose by LC-MS/MS analysis; format: ADME, organism-based; settings: in vivo
[31] = Drug metabolism in mouse liver microsomes assessed as metabolite M+32 (IV) formation at 5 uM after 60 mins by UPLC-MS analysis; format: ADME, microsome; settings: 1 h
Cytochrome P450 3A4 [32] = target: T1, Cytochrome P450 3A4; experiment: Inhibition of CYP3A4 in human liver microsomes assessed as testosterone 6beta-hydroxylation after 4 to 40 mins in presence of NADPH by LCMS analysis; format: ADME

T1 sequence (P08684 whole entry): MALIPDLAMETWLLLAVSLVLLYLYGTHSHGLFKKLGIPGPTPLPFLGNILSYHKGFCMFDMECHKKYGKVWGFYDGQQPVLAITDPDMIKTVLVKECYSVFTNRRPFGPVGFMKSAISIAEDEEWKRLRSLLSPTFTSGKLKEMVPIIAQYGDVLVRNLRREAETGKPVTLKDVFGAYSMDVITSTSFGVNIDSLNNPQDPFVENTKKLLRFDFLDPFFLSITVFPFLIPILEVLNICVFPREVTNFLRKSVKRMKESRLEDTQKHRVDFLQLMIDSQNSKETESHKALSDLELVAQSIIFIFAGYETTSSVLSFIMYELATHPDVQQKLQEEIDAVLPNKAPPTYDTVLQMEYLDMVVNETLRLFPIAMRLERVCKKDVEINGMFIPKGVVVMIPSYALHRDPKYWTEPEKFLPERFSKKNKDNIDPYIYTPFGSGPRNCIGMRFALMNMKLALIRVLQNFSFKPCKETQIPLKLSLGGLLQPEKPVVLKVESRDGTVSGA
Chain of Cytochrome P450 2C9 (P11712 whole entry): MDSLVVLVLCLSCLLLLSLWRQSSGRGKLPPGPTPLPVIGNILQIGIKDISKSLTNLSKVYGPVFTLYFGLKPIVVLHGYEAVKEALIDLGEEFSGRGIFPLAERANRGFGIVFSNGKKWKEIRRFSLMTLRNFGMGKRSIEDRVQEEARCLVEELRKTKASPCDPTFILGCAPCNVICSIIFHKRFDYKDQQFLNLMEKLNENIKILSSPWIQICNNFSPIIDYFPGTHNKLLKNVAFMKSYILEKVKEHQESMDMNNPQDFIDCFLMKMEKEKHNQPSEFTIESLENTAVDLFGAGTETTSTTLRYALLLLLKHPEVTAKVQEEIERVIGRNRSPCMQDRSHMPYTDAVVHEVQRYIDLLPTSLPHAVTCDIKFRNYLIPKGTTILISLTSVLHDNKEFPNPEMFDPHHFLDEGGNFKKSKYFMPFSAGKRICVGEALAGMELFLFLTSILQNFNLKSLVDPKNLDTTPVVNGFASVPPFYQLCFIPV
Chain of Cytochrome P450 2C19 (P33261 whole entry): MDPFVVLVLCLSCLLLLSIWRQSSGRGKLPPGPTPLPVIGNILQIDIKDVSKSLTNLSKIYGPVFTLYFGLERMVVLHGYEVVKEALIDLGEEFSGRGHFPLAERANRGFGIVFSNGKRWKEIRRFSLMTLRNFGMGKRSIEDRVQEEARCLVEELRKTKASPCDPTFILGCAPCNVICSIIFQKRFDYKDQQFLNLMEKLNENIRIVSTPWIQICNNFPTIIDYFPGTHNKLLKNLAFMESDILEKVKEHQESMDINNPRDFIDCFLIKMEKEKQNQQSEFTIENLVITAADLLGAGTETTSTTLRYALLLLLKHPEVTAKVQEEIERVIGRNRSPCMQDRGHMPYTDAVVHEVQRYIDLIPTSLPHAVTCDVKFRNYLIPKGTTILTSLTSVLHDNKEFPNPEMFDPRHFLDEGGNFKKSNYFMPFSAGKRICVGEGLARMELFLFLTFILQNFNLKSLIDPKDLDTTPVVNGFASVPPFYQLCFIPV

## c1cc(C2CCC3(CC2)OOC2(OO3)C3CC4CC(C3)CC2C4)ccc1CN1CCOCC1 (stereo not given)
[1]
  Drug metabolism: Metabolite_Notdetected
[2]
  Cmax: 148 ng/mL
[3]
  Drug metabolism: Metabolite_Notdetected
[4]
  Drug metabolism: Metabolite_Notdetected
Plasmodium falciparum
  ED90: 8.6 mg/kg
[5]
  Drug metabolism: Metabolite_Detected
[6]
  Drug metabolism: Metabolite_Notdetected
Mus musculus [7]
  Cmax/dose: 0.0099 µg/mL/mg/kg
[8]
  Drug metabolism: Metabolite_Notdetected
[9]
  Drug metabolism: Metabolite_Notdetected
Mus musculus [10]
  Cmax/dose: 0.0121 µg/mL/mg/kg
[11]
  Drug metabolism: Metabolite_Notdetected
Cytochrome P450 2C19
  IC50: > 20 µM
[12]
  half-life at 5 µM: 0.717 h
[13]
  Tmax: 0.5 h
Cytochrome P450 2C9
  IC50: > 20 µM
[14]
  Drug metabolism: Metabolite_Notdetected
[15]
  Drug metabolism: Metabolite_Notdetected
[16]
  Drug metabolism: Metabolite_Notdetected
Cytochrome P450 3A4 [17]
  IC50: > 20 µM
[18]
  Drug metabolism: Metabolite_Notdetected
[19]
  Tmax: 2 h
Mus musculus [20]
  Cmax/dose: 0.0218 µg/mL/mg/kg
[21]
  AUC(0-t): 940 ng·h/mL
[22]
  Cmax: 109 ng/mL
[23]
  Drug metabolism: Metabolite_Notdetected
[24]
  Drug metabolism: Metabolite_Notdetected
Mus musculus [25]
  AUCt/dose: 0.0232 µg·h/mL/mg/kg
[26]
  Stability: Stable
[27]
  bioavailability: 52%
[28]
  Tmax: 1 h
[29]
  microsomal CLint at 1 µM: 37 µL/min/mg
[30]
  Tmax: 1 h
[31]
  Drug metabolism: Metabolite_Detected
Cytochrome P450 3A4 [32]
  IC50: > 20 µM
